Row | melting point | SMILES
1 | 124 to 125 °C | Cc1oc(-c2ccco2)nc1COc1ccc(CO/N=C(\CCC(=O)O)c2ccccc2)cc1 [Example 94, E-4-[4-[2-(2-furyl)-5-methyl-4-oxazolylmethoxy]benzyloxyimino]-4-phenylbutyric acid]
2 | 173 to 174 °C (dec.) | Cc1oc(-c2ccccc2)nc1COc1ccc(CO/N=C(\C(=O)O)c2cccc(Oc3ccccc3)c2)cc1 [Example 13, Z-2-[4-(5-methyl-2-phenyl-4-oxazolylmethoxy)benzyloxyimino]-2-(3-phenoxyphenyl)acetic acid]
3 | 67 to 68 °C | Cc1oc(-c2ccccc2)nc1COc1ccc(CO/N=C(\CCCCCCCC(=O)O)c2ccccc2)cc1 [Example 73, E-9-[4-(5-methyl-2-phenyl-4-oxazolylmethoxy)benzyloxyimino]-9-phenylnonanoic acid]
4 | 148 to 149 °C | Cc1oc(-c2ccccc2)nc1COc1ccc(CO/N=C2\CC(C(=O)O)c3ccccc32)cc1 (stereo not drawn) [Example 62, E-3-[4-(5-methyl-2-phenyl-4-oxazolylmethoxy)benzyloxyimino]-1-indancarboxylic acid]
5 | 118 to 119 °C | CCOC(=O)CC/C(=N\OCc1ccc(OCc2nc(-c3ccccc3)oc2C)cc1)c1ccc(Oc2ccccc2)cc1 [Example 46, ethyl E-4-[4-(5-methyl-2-phenyl-4-oxazolylmethoxy)benzyloxyimino]-4-(4-phenoxyphenyl)butyrate]
6 | 107 to 108 °C | Cc1oc(-c2ccccc2)nc1COc1ccc(CON=C(CC(=O)O)c2ccccc2)cc1 [Example 53, 3-[4-(5-methyl-2-phenyl-4-oxazolylmethoxy)benzyloxyimino]-3-phenylpropionic acid]
7 | 106 to 107 °C | Cc1oc(-c2ccccc2)nc1CCOc1ccc(CO/N=C(\CCC(=O)O)c2ccccc2)cc1 [Example 50, E-4-[4-[2-(5-methyl-2-phenyl-4-oxazolyl)ethoxy]benzyloxyimino]-4-phenylbutyric acid]
8 | 88 to 89 °C | O=C(O)CCCC/C(=N\OCc1ccc(OCc2noc(-c3ccccc3)n2)cc1)c1ccccc1 [Example 136, E-6-phenyl-6-[4-(5-phenyl-1,2,4-oxadiazol-3-ylmethoxy)benzyloxyimino]hexanoic acid]
9 | 161 to 162 °C | Cc1oc(-c2ccccc2)nc1COc1ccc(CO/N=C(\CCC(=O)O)c2ccncc2)cc1 [Example 71, E-4-[4-(5-methyl-2-phenyl-4-oxazolylmethoxy)benzyloxyimino]-4-(4-pyridyl)butyric acid]
10 | 100 to 101 °C | O=C(O)CC/C(=N\OCc1ccc(OCc2cc(-c3ccccc3)on2)cc1)c1ccccc1 [Example 90, E-4-phenyl-4-[4-(5-phenyl-3-isoxazolylmethoxy)benzyloxyimino]butyric acid]
11 | 96 to 97 °C | O=C(O)CC/C(=N\OCc1ccc(OCc2cc(-c3ccccc3)no2)cc1)c1ccccc1 [Example 87, E-4-phenyl-4-[4-(3-phenyl-5-isoxazolylmethoxy)benzyloxyimino]butyric acid]
12 | 131 to 133 °C | Cc1oc(-c2ccccc2)nc1COc1ccc(CO/N=C(/CCC(=O)O)c2ccco2)cc1 [Example 68, Z-4-(2-furyl)-4-[4-(5-methyl-2-phenyl-4-oxazolylmethoxy)benzyloxyimino]butyric acid]
13 | 158 to 159 °C | Cc1oc(-c2ccccc2)nc1COc1ccc(CO/N=C(\CCC(=O)O)c2cccnc2)cc1 [Example 70, E-4-[4-(5-methyl-2-phenyl-4-oxazolylmethoxy)benzyloxyimino]-4-(3-pyridyl)butyric acid]
14 | 101 to 102 °C | Cc1oc(-c2ccccc2)nc1COc1ccc(CO/N=C(/CCCCC(=O)O)c2ccccc2)cc1 [Example 61, Z-6-[4-(5-methyl-2-phenyl-4-oxazolylmethoxy)benzyloxyimino]-6-phenylhexanoic acid]
15 | 93 to 94 °C | CN(CCOc1ccc(CO/N=C(\C(=O)O)c2ccccc2)cc1)c1ccccn1 [Example 3, Z-2-[4-[2-(methyl-2-pyridylamino)ethoxy]benzyloxyimino]-2-phenylacetic acid]
16 | 110 to 112 °C | Cc1oc(-c2ccccc2)nc1COc1ccc(CO/N=C(/CCC(N)=O)c2ccccc2)cc1 [Example 139, Z-4-[4-(5-methyl-2-phenyl-4-oxazolylmethoxy)benzyloxyimino]-4-phenylbutanamide]
17 | 130 to 131 °C (dec.) | Cc1oc(-c2ccccc2)nc1COc1ccc(CO/N=C(/C(=O)O)c2cccnc2)cc1 [Example 37, E-2-[4-(5-methyl-2-phenyl-4-oxazolylmethoxy)benzyloxyimino]-2-(3-pyridyl)acetic acid]
18 | 104 to 105 °C | O=C(O)CC/C(=N\OCc1ccc(OCc2csc(-c3ccccc3)n2)cc1)c1ccccc1 [Example 108, E-4-phenyl-4-[4-(2-phenyl-4-thiazolylmethoxy)benzyloxyimino]butyric acid]
19 | 73 to 74 °C | COC(=O)CC/C(=N\OCc1ccc(OCCc2nc(-c3ccccc3)oc2C)cc1)c1ccccc1 [Example 48, methyl E-4-[4-[2-(5-methyl-2-phenyl-4-oxazolyl)ethoxy]benzyloxyimino]-4-phenylbutyrate]
20 | 72 to 73 °C | CN(CCOc1ccc(CO/N=C(\CCC(=O)O)c2ccccc2)cc1)c1ncccn1 [Example 51, E-4-[4-[2-(methyl-2-pyrimidylamino)ethoxy]benzyloxyimino]-4-phenylbutyric acid]
21 | 156 to 157 °C (dec.) | Cc1oc(-c2ccccc2)nc1COc1ccc(CO/N=C(\C(=O)O)c2cccnc2)cc1 [Example 35, Z-2-[4-(5-methyl-2-phenyl-4-oxazolylmethoxy)benzyloxyimino]-2-(3-pyridyl)acetic acid]
22 | 181 to 182 °C (dec.) | Cc1oc(-c2ccccc2)nc1COc1ccc(CO/N=C(\C(=O)O)c2cccc(Br)c2)cc1 [Example 43, Z-2-(3-bromophenyl)-2-[4-(5-methyl-2-phenyl-4-oxazolylmethoxy)benzyloxyimino]acetic acid]
23 | 185 to 186 °C (dec.) | Cc1oc(-c2ccccc2)nc1COc1ccc(CO/N=C(\C(=O)O)c2cccc(C(=O)c3ccccc3)c2)cc1 [Example 40, Z-2-(3-benzoylphenyl)-2-[4-(5-methyl-2-phenyl-4-oxazolylmethoxy)benzyloxyimino]acetic acid]
24 | 182 to 183 °C (dec.) | Cc1oc(-c2ccccc2)nc1COc1ccc(CO/N=C(\C(=O)O)c2ccc(F)cc2)cc1 [Example 15, Z-2-(4-fluorophenyl)-2-[4-(5-methyl-2-phenyl-4-oxazolylmethoxy)benzyloxyimino]acetic acid]
25 | 55 to 65 °C | Cc1oc(-c2ccccc2)nc1COc1ccc(CO/N=C(/C(=O)O)c2cccc(Oc3ccccc3)c2)cc1 [Example 14, E-2-[4-(5-methyl-2-phenyl-4-oxazolylmethoxy)benzyloxyimino]-2-(3-phenoxyphenyl)acetic acid]
26 | 129 to 130 °C | Cc1oc(-c2ccccc2)nc1COc1ccc(CO/N=C(\CCCC(=O)O)c2ccccc2)cc1 [Example 18, E-5-[4-(5-methyl-2-phenyl-4-oxazolylmethoxy)benzyloxyimino]-5-phenylpentanoic acid]
27 | 56 to 57 °C | Cc1oc(-c2ccccc2)nc1COc1ccc(CO/N=C(/CCCCCCC(=O)O)c2ccc(F)cc2)cc1 [Example 126, Z-8-(4-fluorophenyl)-8-[4-(5-methyl-2-phenyl-4-oxazolylmethoxy)benzyloxyimino]octanoic acid]
